Data reported in patent US20240270744A1 (Hoffmann-La Roche Inc., priority 2021, published 2024).
Read-outs that look alike come from different tables or passages of the source.

How the values were obtained:
[1] = target: human GABAA α5β2γ1 receptor (Homo sapiens (Human), UniProt P31644+Q8N1C3); test: Radioligand binding assay, competition for [3H]RO7239181, γ1-containing GABAA subtypes; conditions: Table 1; [3H]RO7239181 displacement, membranes from HEK293F cells, mean of two determinations
Experimental: The affinity of compounds at GABAA γ1 subunit-containing receptors was measured by competition for [^3H]RO7239181 (67.3 Ci/mmol; Roche) binding to membranes from HEK293F cells (ThermoFisher R79007) expressing human (transiently transfected) receptors of composition α5β2γ1, α2β2γ1, α1β2γ1. For better protein expression of the α2 subunit-containing receptors, the 28 amino acid long signal peptide (Met1 to Ala28) of the human GABAA α2 subunit was substituted by the 31 amino acid long signal peptide (Met1 to Ser31) of human GABAA α5 subunit.
(§1) Harvested pellets from HEK293F cells expressing the different GABAA receptor subtypes were resuspended in Mannitol Buffer pH 7.2-7.4 (Mannitol 0.29 M, Triethylamine 10 mM, Acetic acid 10 mM, EDTA 1 mM plus protease inhibitors (20 tablets Complete, Roche Diagnostics Cat. No. 05 056 489 001 per liter)), washed two times and then resuspended at 1:10 to 1:15 dilution in the same buffer. Cell disruption was performed by stirring the suspension in a Parr vessel #4637 at 435 psi for 15 minutes, and then the suspensions were centrifuged at 1000×g for 15 minutes at 4° C. (Beckman Avanti J-HC: rotor JS-4.2). The supernatant (S1) was transferred in a 21 Schott flask and the pellet (P1) was resuspended with Mannitol Buffer up to 175 ml. The resuspended pellet was transferred into a 250 ml Corning centrifugal beaker and centrifuged at 1500×g for 10 minutes at 4° C. (Beckman Avanti J-HC: rotor JS-4.2). The supernatant (S1) was then transferred in the 21 Schott flask and the pellet was discarded. The supernatants (S1) were centrifuged in 500 ml Beckman polypropylene centrifugal beaker at 15′000×g for 30 minutes at 4° C. (Beckman Avanti J-20 XP; rotor JLA-10.500). The pellet (P2) was resuspended with Mannitol Buffer 1:1 and frozen at −80° C. The supernatant (S2) was centrifuged in 100 ml Beckman polypropylene centrifugal tubes at 48000×g for 50 minutes at 4° C. (Beckman Avanti J-20 XP; rotor JA-18). The supernatant (S3) was discarded and the pellet (P3) was resuspended with 1:1 Mannitol Buffer. The P2 and P3 protein concentration was determined with the BIORAD Standard assay method with bovine serum albumin as standard and measured on the NANO-Drop 1000. The membrane suspension was aliquots (500 μl per tube) and stored at −80° C. until required.
(§2) Membrane homogenates were resuspended and polytronised (Polytron PT1200E Kinematica AG) in Potassium Phosphate 10 mM, KCl 100 mM binding buffer at pH 7.4 to a final assay concentration determined with a previous experiment.
Radioligand binding assays were carried out in a volume of 200 μL (96-well plates) which contained 100 μL of cell membranes, [3H]RO7239181 at a concentration of 1.5 nM (α5β2γ1) or 20-30 nM (α1β2γ1, α2β2γ1) and the test compound in the range of [0.3-10000]=10^−9 M. Nonspecific binding was defined by 10×10^−6 (α5β2γ1) and 30×10^−6 M RO7239181 and typically represented less than 5% (α5β2γ1) and less than 20% (β1β2γ1, α2β2γ1) of the total binding. Assays were incubated to equilibrium for 1 hour at 4° C. and then, membranes were filtered onto unifilter (96-well white microplate with bonded GF/C filters preincubated 20-50 minutes in 0.3% Polyethylenimine) with a Filtermate 196 harvester (Packard BioScience) and washed 4 times with cold Potassium Phosphate 10 mM pH 7.4, KCl 100 mM binding buffer. After anhydrousing, filter-retained radioactivity was detected by liquid scintillation counting. Ki values were calculated using Excel-Fit (Microsoft) and are the means of two determinations.
Representative test results, obtained by the above described assay measuring binding affinity to HEK293 cells expressing human (h) receptors, are shown in the Table 1.

[2] = target: human GABAA α2β2γ1 receptor (Homo sapiens (Human), UniProt P47869+Q8N1C3); test: as above; conditions: for LogSel: Log of the γ2/γ1 Ki ratio
Experimental: The affinity of compounds at GABAA γ1 subunit-containing receptors was measured by competition for [^3H]RO7239181 (67.3 Ci/mmol; Roche) binding to membranes from HEK293F cells (ThermoFisher R79007) expressing human (transiently transfected) receptors of composition α5β2γ1, α2β2γ1, α1β2γ1.
as §1, §2
Assays were incubated to equilibrium for 1 hour at 4° C. and then, membranes were filtered onto unifilter (96-well white microplate with bonded GF/C filters preincubated 20-50 minutes in 0.3% Polyethylenimine) with a Filtermate 196 harvester (Packard BioScience) and washed 4 times with cold Potassium Phosphate 10 mM pH 7.4, KCl 100 mM binding buffer. After anhydrousing, filter-retained radioactivity was detected by liquid scintillation counting. Ki values were calculated using Excel-Fit (Microsoft) and are the means of two determinations.

[3] = target: human GABAA α1β3γ2 receptor (Homo sapiens (Human), UniProt P14867+P18507); test: Radioligand binding assay, competition for [3H]Flumazenil, γ2-containing GABAA subtypes; conditions: read-out: Ki h-GABAA α1β3γ2
Experimental: The affinity of compounds at GABAA γ2 subunit-containing receptors was measured by competition for [^3H]Flumazenil (81.1 Ci/mmol; Roche) binding to HEK293F cells expressing human (transiently transfected) receptors of composition α1β3γ2.
Harvested pellets from HEK293F cells expressing the different GABAA γ2 receptor subtypes were resuspended in Mannitol Buffer pH 7.2-7.4 and processed as described above for the cells expressing the GABAA γ1 subunit-containing receptors.
Assays were incubated to equilibrium for 1 hour at 4° C. and harvested onto GF/C uni-filters (Packard) by filtration using a Packard harvester and washing with ice-cold wash buffer (50 mM Tris; pH 7.5). After anhydrousing, filter-retained radioactivity was detected by liquid scintillation counting. Ki values were calculated using Excel-Fit (Microsoft) and are the means of two determinations.

[4] = Ki h-GABAA α2β2γ1, Table 1, [3H]RO7239181 displacement, membranes from HEK293F cells, mean of two determinations
[5] = Ki h-GABAA α2β2γ1, Table 2, [3H]RO7239181 displacement
[6] = Table 1, Ki α1β3γ2 (nM)/Ki α2β2γ1 (nM)
[7] = Table 1, [3H]Flumazenil displacement, HEK293F cells, mean of two determinations

C[C@@H]1N=C(c2c(F)cccc2F)c2c(cnc(C(F)(F)F)c2Cl)-n2nc(C(=O)N3CC(O)C3)nc21 [Example 8, [(7S)-11-chloro-9-(2,6-difluorophenyl)-7-methyl-12-(trifluoromethyl)-2,3,5,8,13-pentazatricyclo[8.4.0.02,6]tetradeca-1(10),3,5,8,11,13-hexaen-4-yl]-(3-hydroxyazetidin-1-yl)methanone]
Ki [1]: 2.5 nM
Ki [2, 4]: 14.6 nM
Ki [2, 5]: 14.6 nM
γ2/γ1 Selectivity Ratio [2, 6]: 255
LogSel ([2]; Table 1): 2.41
Ki [3, 7]: 3720 nM

C[C@@H]1N=C(c2c(F)cccc2F)c2c(cnc(C(F)(F)F)c2Cl)-n2nc(C(=O)N3CCS(=O)(=O)CC3)nc21 [Example 11, [(7S)-11-chloro-9-(2,6-difluorophenyl)-7-methyl-12-(trifluoromethyl)-2,3,5,8,13-pentazatricyclo[8.4.0.02,6]tetradeca-1(10),3,5,8,11,13-hexaen-4-yl]-(1,1-dioxo-1,4-thiazinan-4-yl)methanone]
Ki [1]: 4.6 nM
Ki [2, 4]: 9.6 nM
Ki [2, 5]: 9.6 nM
γ2/γ1 Selectivity Ratio [2, 6]: 818
LogSel ([2]; Table 1): 2.91
Ki [3, 7]: 7890 nM

C[C@@H]1N=C(c2c(F)cccc2F)c2c(cnc(C(F)(F)F)c2Cl)-n2nc(N3CCCC3=O)nc21 [Example 13, 1-[(7S)-11-chloro-9-(2,6-difluorophenyl)-7-methyl-12-(trifluoromethyl)-2,3,5,8,13-pentazatricyclo[8.4.0.02,6]tetradeca-1(10),3,5,8,11,13-hexaen-4-yl]pyrrolidin-2-one]
Ki [1]: 3.1 nM
Ki [2, 4]: 32 nM
Ki [2, 5]: 32 nM
γ2/γ1 Selectivity Ratio [2, 6]: 166
LogSel ([2]; Table 1): 2.22
Ki [3, 7]: 5300 nM

C[C@@H]1N=C(c2c(F)cccc2F)c2c(cnc(C(F)(F)F)c2Cl)-n2nc(C(=O)NC[C@@H](C)O)nc21 [Example 16, (7S)-11-chloro-9-(2,6-difluorophenyl)-N-[(2R)-2-hydroxypropyl]-7-methyl-12-(trifluoromethyl)-2,3,5,8,13-pentazatricyclo[8.4.0.02,6]tetradeca-1(10),3,5,8,11,13-hexaene-4-carboxamide]
Ki [1]: 4.1 nM
Ki [2, 4]: 39.8 nM
Ki [2, 5]: 35.3 nM
γ2/γ1 Selectivity Ratio [2, 6]: 238
LogSel ([2]; Table 1): 2.38
Ki [3, 7]: 9470 nM

Cc1nc2n(n1)-c1cnc(C(F)(F)F)c(Cl)c1C(c1c(F)cccc1F)=N[C@H]2C [Example 5]
Ki [1]: 1.7 nM
γ2/γ1 Selectivity Ratio [2, 6]: 118
LogSel ([2]; Table 1): 2.07
Ki ([2]; Table 1, [3H]RO7239181 displacement, membranes from HEK293F cells, mean of two determinations, read-out: Ki h-GABAA α2β2γ1): 40 nM
Ki ([2]; Table 2, [3H]RO7239181 displacement, read-out: Ki h-GABAA α2β2γ1): 40 nM
Ki [3, 7]: 4740 nM

C[C@H](O)CNC(=O)c1nc2n(n1)-c1cnc(C(F)(F)F)c(Cl)c1C(c1c(F)cccc1F)=N[C@H]2C [Example 14, (7S)-11-chloro-9-(2,6-difluorophenyl)-N-[(2S)-2-hydroxypropyl]-7-methyl-12-(trifluoromethyl)-2,3,5,8,13-pentazatricyclo[8.4.0.02,6]tetradeca-1(10),3,5,8,11,13-hexaene-4-carboxamide]
Ki [1]: 3.7 nM
Ki [2, 4]: 46 nM
Ki [2, 5]: 39.2 nM
γ2/γ1 Selectivity Ratio [2, 6]: 190
LogSel ([2]; Table 1): 2.28
Ki [3, 7]: 8760 nM

Cc1nnc2n1-c1cnc(C(F)(F)F)c(Cl)c1C(c1c(F)cccc1F)=N[C@H]2C [Example 4, (7S)-11-chloro-9-(2,6-difluorophenyl)-3,7-dimethyl-12-(trifluoromethyl)-2,4,5,8,13-pentazatricyclo[8.4.0.02,6]tetradeca-1(10),3,5,8,11,13-hexaene]
Ki [1]: 4.9 nM
Ki [2, 4]: 64.3 nM
Ki [2, 5]: 64.3 nM
Ki ([2]; Ki h-GABAA α2β2γ1, Table 3, reference compounds comparison): 64.3 nM
γ2/γ1 Selectivity Ratio [2, 6]: 113
LogSel ([2]; Table 1): 2.05
γ2/γ1 Selectivity Ratio ([2]; Table 3, Ki α1β3γ2/Ki α2β2γ1): 113
LogSel ([2]; Table 3): 2.1
Ki [3, 7]: 7270 nM
Ki ([3]; Table 3, reference compounds comparison): 7270 nM

C[C@@H]1N=C(c2c(F)cccc2F)c2c(cnc(C(F)(F)F)c2Cl)-n2nc(C(=O)NCC3(O)CC3)nc21 [Example 22, (7S)-11-chloro-9-(2,6-difluorophenyl)-N-[(1-hydroxycyclopropyl)methyl]-7-methyl-12-(trifluoromethyl)-2,3,5,8,13-pentazatricyclo[8.4.0.02,6]tetradeca-1(10),3,5,8,11,13-hexaene-4-carboxamide]
Ki [1]: 6.4 nM
Ki [2, 4]: 43.2 nM
Ki [2, 5]: 43.2 nM
γ2/γ1 Selectivity Ratio [2, 6]: 245
LogSel ([2]; Table 1): 2.39
Ki [3, 7]: 10600 nM

COC1CN(C(=O)c2nc3n(n2)-c2cnc(C(F)(F)F)c(Cl)c2C(c2c(F)cccc2F)=N[C@H]3C)C1 [Example 9, [(7S)-11-chloro-9-(2,6-difluorophenyl)-7-methyl-12-(trifluoromethyl)-2,3,5,8,13-pentazatricyclo[8.4.0.02,6]tetradeca-1(10),3,5,8,11,13-hexaen-4-yl]-(3-methoxyazetidin-1-yl)methanone]
Ki [1]: 7.1 nM
Ki [2, 4]: 19.9 nM
Ki [2, 5]: 19.9 nM
γ2/γ1 Selectivity Ratio [2, 6]: 170
LogSel ([2]; Table 1): 2.23
Ki [3, 7]: 3390 nM

Cc1ncc2c(c1Cl)C(c1c(F)cccc1F)=N[C@@H](C)c1nnc(C)n1-2 [Example 3, (7S)-11-chloro-9-(2,6-difluorophenyl)-3,7,12-trimethyl-2,4,5,8,13-pentazatricyclo[8.4.0.02,6]tetradeca-1(10),3,5,8,11,13-hexaene]
Ki [1]: 4.7 nM
Ki [2, 4]: 51.6 nM
Ki [2, 5]: 51.6 nM
γ2/γ1 Selectivity Ratio [2, 6]: 35
LogSel ([2]; Table 1): 1.54
Ki [3, 7]: 1790 nM
